This is an account of results in patent US20240238423A9, “TETRAHYDROISOQUINOLINE HETEROBIFUNCTIONAL BCL-XL DEGRADERS” (Treeline Biosciences, Inc., priority 2022, published 2024).

Like-named read-outs stand apart in the source and are kept apart here.

The target of the experiment is T1, Human BCL-XL protein (N-terminal HiBiT tagged BCL-XL in HT1080 cells) (Homo sapiens, UniProt Q07817).
T1 construct: expressed in transfected cells; host or cells: HT-1080 (ATCC CCL-121), stably transduced with lentivirus pLV-UBC-N-HiBiT-BCL-XL-PGK-puro and selected with puromycin
Kind of experiment: HiBiT based degradation assay. Format: cell-based. Conditions: HT1080 cells expressing HiBiT-BCL-XL; for Ymin (6 h) / Ymin (24 h): BCL-XL degradation normalized with DMSO control; for DC50: BCL-XL degradation. A digest of the protocol:
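HT1080 cells stably transduced by lentivirus with N-terminally HiBiT-tagged human BCL-XL and kept under 1 μg/mL puromycin selection were seeded at three thousand cells per well in 40 μL RPMI 1640 into 384-well plates pre-spotted with compounds across a concentration range. Luminescence was read on a PHERAstar FSX, normalized to DMSO, and fitted with a four-parameter logistic model.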
(In general: With HiBiT, luminescence reflects the tagged protein that the partner subunit can reach.)

T1 sequence (Q07817 whole entry): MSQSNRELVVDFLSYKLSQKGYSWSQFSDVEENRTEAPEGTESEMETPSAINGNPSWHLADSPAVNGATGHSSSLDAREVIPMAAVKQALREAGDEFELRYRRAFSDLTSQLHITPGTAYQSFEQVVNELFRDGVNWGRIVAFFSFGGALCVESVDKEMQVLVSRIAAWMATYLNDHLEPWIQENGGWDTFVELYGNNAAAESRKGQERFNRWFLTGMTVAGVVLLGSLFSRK

With `Cc1cc(Oc2ccc(CCC(=O)Nc3ccc4c(C5CCC(=O)NC5=O)nn(C)c4c3)cc2)ccc1-c1ccc(N2CCc3cccc(C(=O)Nc4nc5ccccc5s4)c3C2)nc1C(=O)O` (stereo not shown) [Compound 139, 6-(8-(benzo[d]thiazol-2-ylcarbamoyl)-3,4-dihydroisoquinolin-2(1H)-yl)-3-(4-(4-(3-((3-(2,6-dioxopiperidin-3-yl)-1-methyl-1H-indazol-6-yl)amino)-3-oxopropyl)phenoxy)-2-methylphenyl)picolinic acid], the “Ymin (6 h)” value (6 h) is listed as “B (50% ≤ Ymin < 70%)”. For the setting “24 h”, the “Ymin (24 h)” value was “B (50% ≤ Ymin < 70%)”. Further, the DC50 (6 h, read-out: EC50 (6 h)) lay in the range of 0.1 to 1 µM and the DC50 (24 h, read-out: EC50 (24 h)) lay in the range of 0.1 to 1 µM.
For the compound `Cc1c(OCCCN2CCN(CC(=O)N3CCN(c4ccc5c(C6CCC(=O)NC6=O)nn(C)c5c4)CC3)CC2)cccc1-c1ccc(N2CCc3cccc(C(=O)Nc4nc5ccccc5s4)c3C2)nc1C(=O)O` (stereo not shown) [Compound 140, 6-(8-(Benzo[d]thiazol-2-ylcarbamoyl)-3,4-dihydroisoquinolin-2(1H)-yl)-3-(3-(3-(4-(2-(4-(3-(2,6-dioxopiperidin-3-yl)-1-methyl-1H-indazol-6-yl)piperazin-1-yl)-2-oxoethyl)piperazin-1-yl)propoxy)-2-methylphenyl)picolinic acid], under “6 h”, the “Ymin (6 h)” value is “A (Ymin < 50%)”. Further, the “Ymin (24 h)” value (24 h) is “A (Ymin < 50%)”. The DC50 by setting is: (6 h, read-out: EC50 (6 h)) less than 0.1 µM; (24 h, read-out: EC50 (24 h)) less than 0.1 µM.
Consider `Cc1c(OCCN2CCN(CC(=O)N3CCN(c4ccc5c(C6CCC(=O)NC6=O)nn(C)c5c4)CC3)CC2)cccc1-c1ccc(N2CCc3cccc(C(=O)Nc4nc5ccccc5s4)c3C2)nc1C(=O)O` (stereo not shown) [Compound 141, 6-(8-(benzo[d]thiazol-2-ylcarbamoyl)-3,4-dihydroisoquinolin-2(1H)-yl)-3-(3-(2-(4-(2-(4-(3-(2,6-dioxopiperidin-3-yl)-1-methyl-1H-indazol-6-yl)piperazin-1-yl)-2-oxoethyl)piperazin-1-yl)ethoxy)-2-methylphenyl)picolinic acid], for which the “Ymin (6 h)” value (6 h) is reported as “B (50% ≤ Ymin < 70%)”. The “Ymin (24 h)” value (24 h) is recorded as “A (Ymin < 50%)”. The DC50 (6 h, read-out: EC50 (6 h)) was less than 0.1 µM and the DC50 (24 h, read-out: EC50 (24 h)) was less than 0.1 µM.
Turning to `Cc1c(OCCCC2CCN(CC(=O)N3CCN(c4ccc5c(C6CCC(=O)NC6=O)nn(C)c5c4)CC3)CC2)cccc1-c1ccc(N2CCc3cccc(C(=O)Nc4nc5ccccc5s4)c3C2)nc1C(=O)O` (stereo not shown) [Compound 142, 6-(8-(benzo[d]thiazol-2-ylcarbamoyl)-3,4-dihydroisoquinolin-2(1H)-yl)-3-(3-(3-(1-(2-(4-(3-(2,6-dioxopiperidin-3-yl)-1-methyl-1H-indazol-6-yl)piperazin-1-yl)-2-oxoethyl)piperidin-4-yl)propoxy)-2-methylphenyl)picolinic acid], the “Ymin (6 h)” value (6 h) is “A (Ymin < 50%)”. For the same compound, where the note is “24 h”, the “Ymin (24 h)” value is “A (Ymin < 50%)”. Moreover, the DC50 is, setting by setting: (6 h, read-out: EC50 (6 h)) less than 0.1 µM; (24 h, read-out: EC50 (24 h)) less than 0.1 µM.
As for `Cc1c(OCCC2CCN(CC(=O)N3CCN(c4ccc5c(C6CCC(=O)NC6=O)nn(C)c5c4)CC3)CC2)cccc1-c1ccc(N2CCc3cccc(C(=O)Nc4nc5ccccc5s4)c3C2)nc1C(=O)O` (stereo not shown) [Compound 143, 6-(8-(benzo[d]thiazol-2-ylcarbamoyl)-3,4-dihydroisoquinolin-2(1H)-yl)-3-(3-(2-(1-(2-(4-(3-(2,6-dioxopiperidin-3-yl)-1-methyl-1H-indazol-6-yl)piperazin-1-yl)-2-oxoethyl)piperidin-4-yl)ethoxy)-2-methylphenyl)picolinic acid], the “Ymin (6 h)” value (6 h) is recorded as “A (Ymin < 50%)”. For the setting “24 h”, the “Ymin (24 h)” value was “A (Ymin < 50%)”. Moreover, the DC50 is less than 0.1 µM (6 h, read-out: EC50 (6 h)) and less than 0.1 µM (24 h, read-out: EC50 (24 h)).
As to `Cc1c(OCCCC2CCN(CC(=O)N3CCN(c4cccc5c(C6CCC(=O)NC6=O)nn(C)c45)CC3)CC2)cccc1-c1ccc(N2CCc3cccc(C(=O)Nc4nc5ccccc5s4)c3C2)nc1C(=O)O` (stereo not shown) [Compound 144, 6-[8-(1,3-benzothiazol-2-ylcarbamoyl)-3,4-dihydro-1H-isoquinolin-2-yl]-3-[3-[3-[1-[2-[4-[3-(2,6-dioxo-3-piperidyl)-1-methyl-indazol-7-yl]piperazin-1-yl]-2-oxo-ethyl]-4-piperidyl]propoxy]-2-methyl-phenyl]pyridine-2-carboxylic acid], the “Ymin (6 h)” value (6 h) is on record as “A (Ymin < 50%)”. In addition, the “Ymin (24 h)” value (24 h) is recorded as “A (Ymin < 50%)”. In addition, the DC50 is less than 0.1 µM (6 h, read-out: EC50 (6 h)) and less than 0.1 µM (24 h, read-out: EC50 (24 h)).
Consider `Cc1c(OCCC2CCN(CC(=O)N3CCN(c4cccc5c(C6CCC(=O)NC6=O)nn(C)c45)CC3)CC2)cccc1-c1ccc(N2CCc3cccc(C(=O)Nc4nc5ccccc5s4)c3C2)nc1C(=O)O` (stereo not shown) [Compound 145, 6-(8-(benzo[d]thiazol-2-ylcarbamoyl)-3,4-dihydroisoquinolin-2(1H)-yl)-3-(3-(2-(1-(2-(4-(3-(2,6-dioxopiperidin-3-yl)-1-methyl-1H-indazol-7-yl)piperazin-1-yl)-2-oxoethyl)piperidin-4-yl)ethoxy)-2-methylphenyl)picolinic acid], for which, where the note is “6 h”, the “Ymin (6 h)” value is reported as “B (50% ≤ Ymin < 70%)”. Under “24 h”, the “Ymin (24 h)” value is recorded as “A (Ymin < 50%)”. Moreover, the DC50 is less than 0.1 µM (6 h, read-out: EC50 (6 h)) and less than 0.1 µM (24 h, read-out: EC50 (24 h)).
Take `Cc1c(O[C@H]2CC[C@H](CCC(=O)N3CCN(c4cccc5c(C6CCC(=O)NC6=O)nn(C)c45)CC3)CC2)cccc1-c1ccc(N2CCc3cccc(C(=O)Nc4nc5ccccc5s4)c3C2)nc1C(=O)O` (stereo partly shown) [Compound 146a, 6-(8-(benzo[d]thiazol-2-ylcarbamoyl)-3,4-dihydroisoquinolin-2(1H)-yl)-3-(3-(((1r,4r)-4-(3-(4-(3-(2,6-dioxopiperidin-3-yl)-1-methyl-1H-indazol-7-yl)piperazin-1-yl)-3-oxopropyl)cyclohexyl)oxy)-2-methylphenyl)picolinic acid]: for the setting “6 h”, the “Ymin (6 h)” value was “A (Ymin < 50%)”. The “Ymin (24 h)” value (24 h) is listed as “A (Ymin < 50%)”. Besides, the DC50 is 0.1 to 1 µM (6 h, read-out: EC50 (6 h)) and less than 0.1 µM (24 h, read-out: EC50 (24 h)).
As to `Cc1c(O[C@H]2CC[C@@H](CCC(=O)N3CCN(c4cccc5c(C6CCC(=O)NC6=O)nn(C)c45)CC3)CC2)cccc1-c1ccc(N2CCc3cccc(C(=O)Nc4nc5ccccc5s4)c3C2)nc1C(=O)O` (stereo partly shown) [Compound 146b, 6-(8-(benzo[d]thiazol-2-ylcarbamoyl)-3,4-dihydroisoquinolin-2(1H)-yl)-3-(3-(((1s,4s)-4-(3-(4-(3-(2,6-dioxopiperidin-3-yl)-1-methyl-1H-indazol-7-yl)piperazin-1-yl)-3-oxopropyl)cyclohexyl)oxy)-2-methylphenyl)picolinic acid], the “Ymin (24 h)” value (24 h) is listed as “B (50% ≤ Ymin < 70%)”. The DC50 (24 h, read-out: EC50 (24 h)) was in the range of 0.1 to 1 µM.
On to `Cc1c(O[C@H]2CC[C@H](CCCN3CCN(c4cccc5c(C6CCC(=O)NC6=O)nn(C)c45)CC3)CC2)cccc1-c1ccc(N2CCc3cccc(C(=O)Nc4nc5ccccc5s4)c3C2)nc1C(=O)O` (stereo partly shown) [Compound 147a, 6-(8-(benzo[d]thiazol-2-ylcarbamoyl)-3,4-dihydroisoquinolin-2(1H)-yl)-3-(3-(((1s,4r)-4-(3-(4-(3-(2,6-dioxopiperidin-3-yl)-1-methyl-1H-indazol-7-yl)piperazin-1-yl)propyl)cyclohexyl)oxy)-2-methylphenyl)picolinic acid], for which the “Ymin (6 h)” value (6 h) is “B (50% ≤ Ymin < 70%)”. Moreover, the “Ymin (24 h)” value (24 h) is “A (Ymin < 50%)”. Also, the DC50 is less than 0.1 µM (6 h, read-out: EC50 (6 h)) and less than 0.1 µM (24 h, read-out: EC50 (24 h)).
Regarding `Cc1c(O[C@H]2CC[C@@H](CCCN3CCN(c4cccc5c(C6CCC(=O)NC6=O)nn(C)c45)CC3)CC2)cccc1-c1ccc(N2CCc3cccc(C(=O)Nc4nc5ccccc5s4)c3C2)nc1C(=O)O` (stereo partly shown) [Compound 147b, 6-(8-(benzo[d]thiazol-2-ylcarbamoyl)-3,4-dihydroisoquinolin-2(1H)-yl)-3-(3-(((1r,4s)-4-(3-(4-(3-(2,6-dioxopiperidin-3-yl)-1-methyl-1H-indazol-7-yl)piperazin-1-yl)propyl)cyclohexyl)oxy)-2-methylphenyl)picolinic acid], for the setting “24 h”, the “Ymin (24 h)” value is on record as “B (50% ≤ Ymin < 70%)”. For the same compound, the DC50 (24 h, read-out: EC50 (24 h)) was less than 0.1 µM.
With `Cc1c(O[C@H]2CC[C@H](CCCN3CCN(c4ccc5c(C6CCC(=O)NC6=O)nn(C)c5c4)CC3)CC2)cccc1-c1ccc(N2CCc3cccc(C(=O)Nc4nc5ccccc5s4)c3C2)nc1C(=O)O` (stereo partly shown) [Compound 148a, 6-(8-(benzo[d]thiazol-2-ylcarbamoyl)-3,4-dihydroisoquinolin-2(1H)-yl)-3-(3-(((1s,4r)-4-(3-(4-(3-(2,6-dioxopiperidin-3-yl)-1-methyl-1H-indazol-6-yl)piperazin-1-yl)propyl)cyclohexyl)oxy)-2-methylphenyl)picolinic acid], the “Ymin (6 h)” value (6 h) is given as “B (50% ≤ Ymin < 70%)”. For the same compound, under “24 h”, the “Ymin (24 h)” value is reported as “A (Ymin < 50%)”. The DC50 (6 h, read-out: EC50 (6 h)) is less than 0.1 µM and the DC50 (24 h, read-out: EC50 (24 h)) was less than 0.1 µM.
As for `Cc1c(O[C@H]2CC[C@@H](CCCN3CCN(c4ccc5c(C6CCC(=O)NC6=O)nn(C)c5c4)CC3)CC2)cccc1-c1ccc(N2CCc3cccc(C(=O)Nc4nc5ccccc5s4)c3C2)nc1C(=O)O` (stereo partly shown) [Compound 148b, 6-(8-(benzo[d]thiazol-2-ylcarbamoyl)-3,4-dihydroisoquinolin-2(1H)-yl)-3-(3-(((1r,4s)-4-(3-(4-(3-(2,6-dioxopiperidin-3-yl)-1-methyl-1H-indazol-6-yl)piperazin-1-yl)propyl)cyclohexyl)oxy)-2-methylphenyl)picolinic acid], the “Ymin (24 h)” value (24 h) is listed as “A (Ymin < 50%)”. Besides, the DC50 (24 h, read-out: EC50 (24 h)) was less than 0.1 µM.
